# Measured values from article PMC6259456, “Inhibitory Effects of Phylligenin and Quebrachitol Isolated from Mitrephora vulpina on Platelet Activating Factor Receptor Binding and Platelet Aggregation” (Molecules, 2010).
# Like-named read-outs stand apart in the source and are kept apart here.
# Target: T1, platelet activating factor (PAF) receptor (Oryctolagus cuniculus, UniProt G1TEI7)
# T1 construct: gene PTAFR; native receptor on washed rabbit platelets
# Assay: 3H-PAF radioligand displacement on washed rabbit platelets
# Assay type: cell-based
# T1 sequence (G1TEI7 1-342): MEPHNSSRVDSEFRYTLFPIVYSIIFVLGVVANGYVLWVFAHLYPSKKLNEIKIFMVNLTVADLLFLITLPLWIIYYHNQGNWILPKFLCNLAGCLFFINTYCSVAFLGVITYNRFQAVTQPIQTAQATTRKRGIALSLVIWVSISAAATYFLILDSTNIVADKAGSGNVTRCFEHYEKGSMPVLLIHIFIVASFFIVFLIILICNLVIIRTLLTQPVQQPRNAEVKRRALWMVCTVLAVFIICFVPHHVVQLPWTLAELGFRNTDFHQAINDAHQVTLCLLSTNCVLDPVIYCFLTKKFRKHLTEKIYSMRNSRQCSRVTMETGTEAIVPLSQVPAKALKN
IC50 (read-out: IC50) [µM],SMILES,IC50 [µM]
10.6,"C[C@@H]1CC[C@H]2C(C)(C)[C@H]3C[C@@]12CC[C@@]3(C)O [cedrol, reference compound]",
,COc1cc([C@H]2OC[C@H]3[C@@H]2CO[C@H]3c2ccc(OC)c(OC)c2)ccc1O [phylligenin],13.1
42.2,"CO[C@H]1[C@H](O)[C@@H](O)[C@H](O)[C@H](O)[C@H]1O [quebrachitol, 2-O-methyl-L-chiro-inositol]",
